Results taken from US8889156B2, “Calcium-binding agents induce hair growth and/or nail growth” (priority 2009, dated 2014).
“Also recorded” adds a separate entry of the source.

Key:
[1] = Binding of calcium phosphate to immobilized DSS peptides on streptavidin-coated polystyrene beads; settings: biotin-conjugated peptide on beads, saturated CaHPO4 solutions
Experimental: Streptavidin-coated polystyrene beads with an average diameter of 4 μm (Spherotech, Lake Forest, Ill.) were incubated with either biotin-conjugated 8DSS (SEQ ID NO:33) peptide or unconjugated biotin (control beads). Beads were washed with PBS to remove unbound peptide (or unbound biotin in control beads) and incubated in a solution of PBS+1 mM CaCl2+1 mM NaHPO4 for 12 days prior to imaging. […] DSS-containing peptides containing C-terminal biotin labels were then synthesized and immobilized on streptavidin-coated beads. The beads were washed and incubated in solutions containing varying concentrations of CaHPO4 as before. Consistent with previous observations for the dentin phosphoproteins/phosphosphoryns as well as other phosphoproteins (Saito et al. (1997) Bone 21: 305-311; Saito et al. (2000) J Bone Miner Res., 15: 1615-1619), these immobilized peptides caused coaggregation of the beads with particles of amorphous CaHPO4 and eventually led to the deposition of crystalline material around the bead. […] By comparison, in the biotin-blocked control sample, nearly all beads were unaggregated and unassociated with precipitate (FIG. 9, panel B).

[2] = DSS-mediated remineralization of demineralized tooth surfaces with Quell Desensitizer (SEM); parameters: species or system human; settings: peptide pretreatment 1 h, then Quell Desensitizer 15 min
Experimental: Adult human molars, extracted during normal clinical practice, were sagittally sectioned (Accutom-50, Copenhagen, Denmark; CA-231 diamond blade) and demineralized with 19% ethylenediaminotetraacetic acid (EDTA) gel for 1 h, followed by immersion in deionized water and ultrasonication to remove debris. Samples were treated with either 12.5 p.M 8DSS (SEQ ID NO:33) peptide in 50 mM HEPES buffer (pH 7.0) or buffer alone (no peptide) or were left untreated for 1 h prior to remineralization with Quell Desensitizer (Pentron Technologies, Wallingford, Conn.), a remineralization solution consisting of aqueous solutions of calcium chloride and potassium phosphate, for 15 min. Samples were rinsed thoroughly prior to imaging by scanning electron microscopy. Having established that (DSS)n-containing peptides can bind to the dentin surface and that immobilized peptides could cause the accretion of calcium phosphate, we sought to determine whether these peptides could be used to recruit calcium phosphate to the dentin surface. Demineralized sections of extracted human teeth were treated with 8DSS (SEQ ID NO:33) peptide and then subjected to remineralization with Quell Desensitizer (Pentron Technologies), a commercially available remineralization product consisting of aqueous solutions of calcium chloride and potassium phosphate.

For “DSS DSS DSSDSS DSS DSS DSS DSS (DSSDSSDSSDSSDSSDSSDSSDSS; synthetic calcium-binding peptide 8DSS)”, the “aggregation/accretion of calcium phosphate by immobilized peptide” value [1] was “effectively aggregate amorphous calcium phosphate” and the “mineral accumulation on demineralized dentin” value [2] was “accumulated a continuous layer of calcium phosphate precipitate; also recorded: markedly enhanced the effectiveness of a commercially available remineralization product”.
